Reference: PMC3252375 (PLoS Pathogens, 2012)
Read-outs that look alike come from different tables or passages of the source.

Tests used:
[1] = system: LncP (Legionella nucleotide carrier Protein); assay type: biochemical, Legionella pneumophila
[2] = system: LncP (Legionella nucleotide carrier Protein)

Q: With `Nc1nc2c(ncn2[C@@H]2O[C@H](COP(=O)(O)OP(=O)(O)OP(=O)(O)O)[C@@H](O)[C@H]2O)c(=O)[nH]1` [GTP] as the compound, how does the Km [1] read?
A: 183 ± 32 µM

Q: `Nc1ncnc2c1ncn2[C@@H]1O[C@H](COP(=O)(O)OP(=O)(O)OP(=O)(O)O)[C@@H](O)[C@H]1O` [ATP] was tested. Which Km [2] did it give?
A: 190 ± 37 µM
